“Also recorded” adds a separate entry of the source.
Legend:
[1] = Metabolic stability in liver microsomes; format: in vitro ADME; details: cynomolgus monkey liver microsomes
[2] = tested on: SOD1^G93A−Tg mice; assay: Efficacy of i.p. injection in SOD1G93A-Tg ALS mice; format: in vivo; details: for reduction of rotarod latency to fall at 16 weeks compared to 11 weeks: vehicle ~43%
Method: To evaluate the therapeutic effect of PRG-A-04, SOD1^G93A−Tg mice received intraperitoneal injection of vehicle (DMSO, n = 6) or PRG-A-04 (20 mg/kg, n = 4; 50 mg/kg, n = 6) twice per week from 11 weeks for 6–8 weeks. WT mice (n = 5) served as negative littermates of the SOD1^G93A−Tg mice. WT mice were treated in the same conditions.
For histology analysis, SOD1^G93A−Tg mice received intraperitoneal injections starting from 11 weeks and sacrificed at 17 weeks (vehicle, n = 3; PRG-A-04 20 mg/kg, n = 2, 50 mg/kg, n = 2) and 19 weeks (vehicle, n = 2; PRG-A-04 50 mg/kg, n = 2). WT male mice (n = 5) were sacrificed at 17 weeks. Mice were sacrificed by i.p. (intraperitoneal) injection of avertin at a volume of 150–200 μL. The spinal cord was obtained and fixed in 4% paraformaldehyde for 48 h and embedded in paraffin blocks. The embedded tissues (cervical region of the spinal cord) were sectioned at 5 µm by Accu-Cut ® SRMTM 200 Rotary Microtome (Sakura Finetek, Torrance, CA) and transferred onto adhesive-coated slides (Marienfeld Laboratory Glassware, Lauda-Königshofen, Germany). After deparaffin and rehydration, the slides were stained with hematoxylin and eosin (H&E) to detect spinal cord neurons. In addition, immunohistochemistry (IHC) with antibodies for neuronal markers MAP2 (ab32454, Abcam, Cambridge, UK) and NeuN (ab177487, Abcam) as well as for SOD1 (GTX100554, Genetex, Irvine, CA) was performed. The intensity of MAP2 and NeuN was calculated with the Image J software (version 1.54p, National Institute of Mental Health, MD). For counting intensity, IHC images were divided using the “color deconvolution” function in Image J software and the DAB signal was quantified.
Age-matched WT mice were tested as positive control. […] Mouse movement was recorded.
PRG-A-04 (20 mg/kg or 50 mg/kg) was injected intraperitoneally (i.p., twice a week) in 11-week-old SOD1^G93A−Tg mice to verify its efficacy in vivo (Fig. S4a). […] We performed the rotarod test to monitor muscle strength.
11 weeks old mice were injected with 20 mg/kg and 50 mg/kg, twice per week for 6~8 weeks and checked the motility with rotarod test. To check the histology analysis, some mouse groups were sacrificed and the spinal cord was isolated at 16 weeks and 18 weeks. b, […]
(d) The 11 weeks old mice were injected with PRG-A-04 for 6 weeks and sacrificed at 16 weeks. The cervical spinal cord was stained with H&E. Scale bar; […]. (e) Representative images […]
The tissue lysates were harvest with TNNI buffer and incubation for 30 min then fixed with 0.04% glutaraldehyde (Glu) for 30min. Samples were separated using SDS-PAGE. Arrow indicates human SOD1(hSOD1- […]
MAP2 (e) and the number of NeuN positive cells (f) were counted with Image J software.

For `COc1cc(C=CCOC2Cc3cc4ccc(=O)oc4cc3OC2(C)C)ccc1[N+](=O)[O-]` (centres unmarked) [PRG-A-04], the “extent of metabolism in liver microsomes” value [1] was “moderately metabolized; also recorded: metabolized significantly”, the “reduction of rotarod latency to fall at 16 weeks compared to 11 weeks” value ([2]; i.p. 20 mg/kg twice a week from 11 weeks (first of 'respectively')) was 14.4% and the “reduction of rotarod latency to fall at 16 weeks compared to 11 weeks” value ([2]; i.p. 50 mg/kg twice a week from 11 weeks (second of 'respectively')) was 20.1%. For the same molecule, the “motor function in open field test” value ([2]; i.p. 50 mg/kg, age of 18 weeks) was “significantly improved motor function”, the “SOD1 inclusion bodies in spinal cord” value ([2]; i.p. 20 and 50 mg/kg, immunohistochemistry) was “reduced SOD1 inclusion bodies” and the “toxicity regarding body weight loss” value ([2]; i.p. 20 or 50 mg/kg twice a week) was “no cytotoxicity regarding body weight loss”. For the same molecule, the “number of neurons in cervical region of the spinal cord” value ([2]; i.p., histology at 16 weeks, versus vehicle) was “increased the number of neurons” and the “insolubility and oligomerization of SOD1 in spinal cord” value ([2]; i.p., western blotting of cervical spinal cord lysates) was “decrease of insolubility and oligomerization of SOD1”.

Source: PMC12067741, “Inhibition of SOD1 trimerization is a novel drug target for ALS disease” (Translational Neurodegeneration, 2025)
